Data on 14 compounds can be found in US20250230165A1, “HETEROCYCLIC COMPOUNDS FOR USE IN THE TREATMENT OF CANCER” (ARTIOS PHARMA LIMITED, priority 2021, published 2025).

This assay concerns the target T1, Human Polθ polymerase domain (aa1820-2590) (Homo sapiens, UniProt O75417).
T1 construct: Human Polθ polymerase domain (aa1820-2590) was expressed in E. coli; made in house; host or cells: E. coli
T1 sequence (O75417 1820-2590): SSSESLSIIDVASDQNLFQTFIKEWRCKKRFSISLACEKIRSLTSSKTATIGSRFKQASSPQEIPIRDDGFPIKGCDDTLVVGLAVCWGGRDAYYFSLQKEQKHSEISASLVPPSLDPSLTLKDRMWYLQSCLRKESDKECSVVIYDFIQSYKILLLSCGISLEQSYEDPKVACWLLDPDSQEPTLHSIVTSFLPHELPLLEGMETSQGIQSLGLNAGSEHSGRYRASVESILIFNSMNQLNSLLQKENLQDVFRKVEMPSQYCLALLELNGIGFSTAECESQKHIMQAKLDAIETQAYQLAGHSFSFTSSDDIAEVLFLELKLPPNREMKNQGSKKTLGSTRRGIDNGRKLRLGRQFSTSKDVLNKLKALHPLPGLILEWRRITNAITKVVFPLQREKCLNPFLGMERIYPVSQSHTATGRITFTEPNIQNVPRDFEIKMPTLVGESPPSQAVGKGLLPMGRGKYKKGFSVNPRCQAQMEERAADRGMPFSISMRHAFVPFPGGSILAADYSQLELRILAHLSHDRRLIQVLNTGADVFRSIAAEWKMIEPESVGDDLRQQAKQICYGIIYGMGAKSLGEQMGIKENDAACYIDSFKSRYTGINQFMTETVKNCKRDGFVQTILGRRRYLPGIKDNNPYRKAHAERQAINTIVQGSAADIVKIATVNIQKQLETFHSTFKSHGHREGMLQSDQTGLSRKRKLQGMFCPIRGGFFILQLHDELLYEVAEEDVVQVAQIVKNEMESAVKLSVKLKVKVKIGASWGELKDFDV
Briefly: Polθ Polymerase Domain Kinact/KI Assay (PicoGreen). The class given is biochemical. Particulars: 0.8 nM Polθ, 100 nM DNA substrate, kobs vs [I] fit for 2-step covalent inhibitor. The procedure, abridged: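 Enzyme 0.8 nM, annealed DNA substrate 100 nM, […]; 25 mM Tris pH 7.5, 5% glycerol, 0.01% Triton X-100, 0.1 mg/ml BSA, 1 mM DTT, 1% DMSO. Quench with EDTA at timepoints to 60 min; PicoGreen read. kobs from time courses → Kinact/KI.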
For the compound `C=CC(=O)N1Cc2ncc(CN3C[C@H]4CC(=O)N(c5cc(C(F)(F)F)cc(C)n5)[C@@H]4C(=O)N(C)c4cccc(C)c43)cc2[C@@H]1CC#N` (racemic) [Example 320b, 2-((S/R)-6-acryloyl-3-(((3aR,11aS)-6,10-dimethyl-1-(6-meth-yl-4-(trifluorometh-yl)pyridin-2-yl)-2,11-dioxo-1,2,3,3a, 4, 10,11,11a-octa-hydro-5H-benzo[b]pyrrolo[2,3-f][1,4]diazocin-5-yl)meth-yl)-6,7-dihydro-5H-pyrrolo[3,4-b]pyr-idin-5-yl)acetonitrile], the Kinact/Kl is 2.48e+06 M⁻¹ s⁻¹.

`C=CC(=O)N1CC(N2CCN(CCN3C[C@H]4CC(=O)N(c5cc(C(F)(F)F)cc(C)n5)[C@@H]4C(=O)N(C)c4cccc(F)c43)C[C@H](F)C2)C1` [Example 29, (3aR,11aS)-5-(2-((S)-4-(1-acryloylazetidin-3-yl)-6-fluoro-1,4-diazepan-1-yl)ethyl)-6-fluoro-10-methyl-1-(6-methyl-4-(trifluoromethyl)pyridin-2-yl)-1,3a,4,5,10,11a-hexahydro-2H-benzo[b]pyrrolo[2,3-f][1,4]diazocine-2,11(3H)-dione]: the Kinact/Kl amounted to 320000 M⁻¹ s⁻¹. As for `C=C(CN(C)C)C(=O)NCC12CC(CN3C[C@H]4CC(=O)N(c5cc(C(F)(F)F)cc(C)n5)[C@@H]4C(=O)N(C)c4cccc(C)c43)(C1)C2` [Example 185, N-((3-(((3aR,11aS)-6,10-dimethyl-1-(6-methyl-4-(trifluoromethyl)-pyridin-2-yl)-2,11-dioxo-1,2,3,3a,4, 10,11,11a-octa-hydro-5H-benzo [b]pyrrolo[2,3-f] [1,4]diazocin-5-yl)methyl)bicyclo [1.1.1]pentan-1-yl)methyl)-2-((dimethylamino)-methyl)acrylamide], the figure is 1.27e+06 M⁻¹ s⁻¹; as for `C=C(COC(C)=O)C(=O)N1CC(OCCCN2C[C@H]3CC(=O)N(c4cc(C(F)(F)F)cc(C)n4)[C@@H]3C(=O)N(C)c3cccc(Cl)c32)C1` [Example 78, 2-(3-(3-((3aR,11aS)-6-chloro-10-methyl-1-(6-methyl-4-(trifluoromethyl)pyridin-2-yl)-2,11-dioxo-1,2,3,3a,4,10,11,11a-octahydro-5H-benzo[b]pyrrolo[2,3-f][1,4]diazocin-5-yl)propoxy)azetidine-1-carbonyl)allyl Acetate], 2.06e+06 M⁻¹ s⁻¹; as for `C=C(CN1CCN(C)CC1)C(=O)N1CC(CCCCN2C[C@H]3CC(=O)N(c4cc(C(F)(F)F)cc(C)n4)[C@@H]3C(=O)N(C)c3cccc(Cl)c32)C1` [Example 167, (3aR,11aS)-6-chloro-10-methyl-1-(6-methyl-4-(trifluoromethyl)pyridin-2-yl)-5-(4-(1-(2-((4-methylpiperazin-1-yl)methyl)acryloyl)azetidin-3-yl)butyl)-1,3a,4,5,10,11a-hexahydro-2H-benzo[b]pyrrolo[2,3-f][1,4]diazocine-2,11(3H)-dione], 4.66e+06 M⁻¹ s⁻¹. The value for `C=C(CN(C)C)C(=O)N1CC(CCC(F)CN2C[C@H]3CC(=O)N(c4cc(C(F)(F)F)cc(C)n4)[C@@H]3C(=O)N(C)c3cccc(Cl)c32)C1` (stereo partly drawn) [Example 302, (3aR,11aS)-6-chloro-5-(4-(1-(2-((dimethylamino)methyl)acryloyl)azetidin-3-yl)-2-fluorobutyl)-10-methyl-1-(6-methyl-4-(trifluoromethyl)pyridin-2-yl)-1,3a,4,5,10,11a-hexahydro-2H-benzo[b]pyrrolo[2,3-f][1,4]diazocine-2,11(3H)-dione] was 3.04e+06 M⁻¹ s⁻¹; that for `C#CC(=O)NC12CC(CN3C[C@H]4CC(=O)N(c5cc(C(F)(F)F)cc(C)n5)[C@@H]4C(=O)N(C)c4cccc(C)c43)(C1)C2` [Example 200, N-(3-(((3aR,11aS)-6,10-dimethyl-1-(6-methyl-4-(tri-fluoromethyl)pyri-din-2-yl)-2,11-dioxo-1,2,3,3a,4, 10,11,11a-octa-hydro-5H-benzo[b]pyrrolo[2,3-f][1,4]diazocin-5-yl)-methyl)bicyclo [1.1.1]pentan-1-yl)propiolamide] was 690000 M⁻¹ s⁻¹. In the case of `C=CC(=O)N1CCN(CCCN2C[C@H]3CC(=O)N(c4cc(C(F)(F)F)cc(C)n4)[C@@H]3C(=O)N(C)c3cccc(Cl)c32)CC1` [Example 266, (3aR,11aS)-5-(3-(4-acryloylpiperazin-1-yl)propyl)-6-chloro-10-methyl-1-(6-methyl-4-(trifluoromethyl)pyridin-2-yl)-1,3a,4,5,10,11a-hexahydro-2H-benzo[b]pyrrolo[2,3-f][1,4]diazocine-2,11(3H)-dione], the Kinact/Kl was determined as 590000 M⁻¹ s⁻¹. Regarding `C=CC(=O)N1Cc2ncn(CCN3C[C@H]4CC(=O)N(c5cc(C(F)(F)F)cc(C)n5)[C@@H]4C(=O)N(C)c4cccc(Cl)c43)c2C1` [Example 259, (3aR,11aS)-5-(2-(5-acryloyl-5,6-dihydropyrrolo[3,4-d]imidazol-1(4H)-yl)ethyl)-6-chloro-10-methyl-1-(6-methyl-4-(trifluoromethyl)pyridin-2-yl)-1,3a,4,5,10,11a-hexahydro-2H-benzo[b]pyrrolo[2,3-f][1,4]diazocine-2,11(3H)-dione], the Kinact/Kl was 150000 M⁻¹ s⁻¹. `C=CC(=O)N1CCC(n2cnc(CN3C[C@H]4CC(=O)N(c5cc(C(F)(F)F)cc(C)n5)[C@@H]4C(=O)N(C)c4cccc(C)c43)n2)CC1` [Example 204, (3aR,11aS)-5-((1-(1-acryloylpiperidin-4-yl)-1H-1,2,4-triazol-3-yl)methyl)-6,10-dimethyl-1-(6-methyl-4-(trifluoromethyl)pyridin-2-yl)-1,3a,4,5,10,11a-hexahydro-2H-benzo[b]pyrrolo [2,3-f][1,4]diazocine-2,11(3H)-dione] yielded a Kinact/Kl of 980000 M⁻¹ s⁻¹. As for `C=CC(=O)N1CCC12CCN(CCN1C[C@H]3CC(=O)N(c4cc(C(F)(F)F)cc(C)n4)[C@@H]3C(=O)N(C)c3cccc(F)c31)C2` (single isomer, unassigned) [Example 21b], the figure is 140000 M⁻¹ s⁻¹. As for `C=CC(=O)N1CCN(c2cccc(N3C[C@H]4CC(=O)N(c5cc(C(F)(F)F)cc(C)n5)[C@@H]4C(=O)N(C)c4cccc(F)c43)c2)CC1` [Example 54, (3aR,11aS)-5-(3-(4-acryloylpiperazin-1-yl)phenyl)-6-fluoro-10-methyl-1-(6-methyl-4-(trifluoromethyl)pyridin-2-yl)-1,3a,4,5,10,11a-hexahydro-2H-benzo[b]pyrrolo[2,3-f][1,4]diazocine-2,11(3H)-dione], the figure is 110000 M⁻¹ s⁻¹; as for `C=CC(=O)N1CCc2c(ncn2CCN2C[C@H]3CC(=O)N(c4cc(C(F)(F)F)cc(C)n4)[C@@H]3C(=O)N(C)c3cccc(F)c32)C1` [Example 49, (3aR,11aS)-5-(2-(5-acryloyl-4,5,6,7-tetrahydro-1H-imidazo[4,5-c]pyridin-1-yl)ethyl)-6-fluoro-10-methyl-1-(6-methyl-4-(trifluoromethyl)pyridin-2-yl)-1,3a,4,5,10,11a-hexahydro-2H-benzo[b]pyrrolo[2,3-f][1,4]diazocine-2,11(3H)-dione], 340000 M⁻¹ s⁻¹; as for `C=CC(=O)N1CC(N2CCC(CCN3C[C@H]4CC(=O)N(c5cc(C(F)(F)F)cc(C)n5)[C@@H]4C(=O)N(C)c4cccc(F)c43)CC2)C1` [Example 215, (3aR,11aS)-5-(2-(1-(1-acryloylazetidin-3-yl)piperidin-4-yl)ethyl)-6-fluoro-10-methyl-1-(6-methyl-4-(trifluoromethyl)pyridin-2-yl)-1,3a,4,5,10,11a-hexahydro-2H-benzo[b]pyrrolo [2,3-f][1,4] diazocine-2,11 (3H)-dione], 1.21e+06 M⁻¹ s⁻¹.
